Source: US20260097022A1, “COMPOUNDS AND USES THEREOF” (Integrated Biosciences, Inc., priority 2023, published 2026)
Counter-ions that a name gives are not always drawn.

Tests used:
primary human T-cells = assay: Cytotoxicity to T-cells in vitro; format: cell-based; settings: for T-cell death: at about 0.1 μM; for IC50: primary human T-cells, read-out: T-cell cytotoxicity IC50
[1] = system: etoposide-treated IMR-90 cells; assay: Etoposide-induced senescence model, resazurin cell viability (screen and dose-response); format: cell-based, human; settings: for senolytic activity in screen: 3 days; for Therapeutic Index (TI): etoposide-induced senescence model, ratio of IC50 values between etoposide- and DMSO-treated IMR-90 fibroblasts
In short: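 IMR-90 fibroblasts made senescent with 50 μM etoposide for 2 days, then 4 days recovery before plating. Compounds at 10 μM or 1 μM final (screen) or three-fold dilutions (1% DMSO) for 3 days, then 0.15 mM resazurin 1 day, fluorescence 550/590 nm. Viability expressed as fraction of untreated controls; biological duplicates.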

[2] = Phase II, lung carcinoma; cited from earlier work
HEK293 cells = assay: Cytotoxicity against HEK293 cells (resazurin); format: cell-based, human; settings: 3 days treatment; curve-fitting, two biological replicates
Description: (§1) Measuring cytotoxicity against HepG2 and HEK293 cells. Cytotoxicity in human embryonic kidney (HEK293) and liver carcinoma (HepG2) cells was assayed as above using a resazurin assay. Cells were obtained from ATCC (ATCC CRL-1573 and HB-8065), passaged <10 times, and grown in Dulbecco's modification of Eagle's Medium (DMEM: Corning 10^−013-CV) supplemented with 10% FBS and 1% penicillin-streptomycin. 99 μL of cells were plated into each well of a 96-well clear flat-bottom, black polystyrene tissue-culture-treated plate at a density of ˜10+ cells/well, and plates were incubated overnight for adhesion. The day after plating. 1 μL of each compound, prepared as two-fold serial dilutions of 5 mM stock solutions in DMSO, was added to each well. Cells were incubated for 3 days, after which resazurin was added to each well to a final concentration of 0.15 mM. After an additional 1 day of incubation, the fluorescence excitation/emission at 550/590 nm was read using a SpectraMax M3 plate reader. Experiments were performed in biological duplicate. IC50 values were determined by normalizing with respect to the fluorescence intensity values of untreated control cells on day 3, as described in Calculation of cellular viability values in dose-response curves above.

HepG2 cells = assay: Cytotoxicity against HepG2 cells (resazurin); format: cell-based, human; settings: 3 days treatment; curve-fitting, two biological replicates
Description: as §1

human red blood cells = assay: Hemolysis assay; format: cell-based
Description: Hemolysis assay. Whole human blood containing EDTA (Innovative Resarch IWB1K2E) was centrifuged at 120×g at 4° C., for 5 min and resuspended in Dulbecco's PBS (DPBS: VWR 02-0119-0500). These washing steps were repeated until the supernatant was clear. Red blood cells were then resuspended in DPBS to 5×10^8 cells/mL, and 100 μL of cells was plated into each well of a 96-well clear round-bottom plate. Compounds were added to the indicated concentrations, and DMSO was used as a vehicle. Samples were incubated for 1 h at 37° C., without shaking, after which plates were centrifuged at 1500×g at room temperature for 5 min to pellet cells. 60 μL of the supernatant from each sample was then transferred to a 96-well clear flat-bottom plate, and the absorbance was read at 405 nm using a SpectraMax M3 plate reader to quantify the amount of soluble hemoglobin. Fractional hemolysis was determined by linearly interpolating absorbance values with respect to a positive control (saturation with 10% Triton X-100) and a negative control (1% DMSO vehicle). Results are depicted in FIG. 14.

[3] = system: Salmonella typhimurium TA100; assay: Genotoxicity assay (Ames 384-ISO test); format: cell-based; settings: 100 μM
Description: Genotoxicity assay. An Ames 384-ISO test (6041-1S) from Environmental Bio-Detection Products, Inc, was used following the manufacturer's instructions. Briefly. Salmonella typhimurium TA100 was grown overnight (16-18 h) at 37° C., with shaking at 300 rpm and treated with the provided exposure media and compound samples at the final concentrations indicated. Treatment with the provided 4-nitroquinoline 1-oxide (4NQO), a mutagen, was used as a positive control. Cells were then added to the provided reversion solution, and each sample was split into 48 wells of 384-well plates. Plates were incubated at 37° C., for 2 days, after which the number of revertant (yellow-colored) wells corresponding to each sample was counted. […] An overnight bacterial culture was diluted 1:10.000 in LB medium (Becton Dickinson 244620) and plated using 99 μL working volumes into the wells of a clear flat-bottom 96-well plate. One μL of two-fold dilutions of each test compound in DMSO, starting from a final concentration of 500 μM, was added across wells, and plates were sealed and incubated overnight at 37° C., to determine bacterial growth.

[4] = cited from earlier work
Mcl-1 = Mcl-1 (Homo sapiens, UniProt Q07820); assay: Mcl-1 TR-FRET; format: binding
ex vivo human skin = assay: Ex vivo aged human skin model
Description: IBX-100 was first tested in ex vivo skin for safety.
IBX-100 was further tested in ex vivo skin for efficacy, p16 mRNA expression was measured after 5 days of topical application of IBX-100 on an older subject (e.g. Person, Fitzpatrick type 2) skin, and compared to vehicle values.

[5] = system: wounded ex vivo human skin; assay: Ex vivo wounded skin model
Description: For the younger skin sample, RNA expression levels of collagen (Col1a1) and matrix metallopeptidase 9 (MMP9) were additionally measured. Higher levels of Col1a1 may be associated with senescence and scarring.
IBX-100 was tested again for safety in a combination dosing regimen. IBX-100 was formulated as a 10% solution in 100% DMSO and applied directly by pipetting 5 μL on wounded younger skin (e.g. Person, Fitzpatrick type 2-3). Additionally, IBX-100 was administered to the culture medium at a final concentration of about 100 μg/mL, by adding 1 μL of a 100 mg/mL solution in DMSO to 1 mL of culture media, as a model of systemic administration.
To test efficacy. IBX-100 was applied both topically and systemically as described above every 24 h for 5 days. On day 6, the skin biopsies were excised, and p16. Col1a1, and MMP9 RNA expression was measured inside each wound. Compared to vehicle (e.g., DMSO) values, p16. Col1a1, and MMP9 expression was decreased, on average, by ˜30%. ˜ 60%, and ˜60%, respectively, with administration of IBX-100 (FIG. 19).

[6] = Cytotoxicity to T-cells in vitro; format: cell-based, human; settings: human, primary human T-cells; read-out: T-cell cytotoxicity IC50
[7] = 10 μM, active: control viability >0.5, Snc/control ratio <0.7
[8] = topical and systemic every 24 h for 5 days, day 6

Sequence of Mcl-1 (Q07820 whole entry, species assumed): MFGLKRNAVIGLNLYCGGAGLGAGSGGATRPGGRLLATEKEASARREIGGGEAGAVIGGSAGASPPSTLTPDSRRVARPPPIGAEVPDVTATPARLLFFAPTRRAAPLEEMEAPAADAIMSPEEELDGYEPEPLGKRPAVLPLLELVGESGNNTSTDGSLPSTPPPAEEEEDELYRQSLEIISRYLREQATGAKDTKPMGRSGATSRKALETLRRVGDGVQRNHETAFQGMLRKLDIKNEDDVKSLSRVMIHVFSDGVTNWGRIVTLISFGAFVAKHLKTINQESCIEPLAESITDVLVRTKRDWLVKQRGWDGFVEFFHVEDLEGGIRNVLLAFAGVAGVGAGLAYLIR

Question: With `CC1(C)CCC(CN2CCN(c3ccc(C(=O)NS(=O)(=O)c4ccc(NCC5CCOCC5)c([N+](=O)[O-])c4)c(Oc4cnc5[nH]ccc5c4)c3)CC2)=C(c2ccc(Cl)cc2)C1` [ABT-199] as the molecule, how does the T-cell death (primary human T-cells) read?
Answer: substantial cell death

Question: What about the IC50 (primary human T-cells) of the same molecule?
Answer: ~1 µM

Question: With `CC1(C)CCC(c2ccc(Cl)cc2)=C(CN2CCN(c3ccc(C(=O)NS(=O)(=O)c4ccc(N[C@H](CCN5CCOCC5)CSc5ccccc5)c(S(=O)(=O)C(F)(F)F)c4)cc3)CC2)C1` [ABT-263] as the molecule, how does the “senolytic activity in screen” value ([1]; 1 μM) read?
Answer: inactive

Question: And the “senolytic activity in screen” value [1, 7]?
Answer: active

Question: What about the T-cell death (primary human T-cells) of the same molecule?
Answer: substantial cell death

Question: And the IC50 (primary human T-cells)?
Answer: ~1 µM

Question: And the “side effects in patients” value [2]?
Answer: thrombocytopenia and neutropenia were common side effects

Question: With `CN(C)CC[C@H](CSc1ccccc1)Nc1ccc(S(=O)(=O)NC(=O)c2ccc(N3CCN(Cc4ccccc4-c4ccc(Cl)cc4)CC3)cc2)cc1[N+](=O)[O-]` [ABT-737, reference compound] as the molecule, how does the “senolytic activity in screen” value ([1]; 1 μM) read?
Answer: inactive

Question: And the “senolytic activity in screen” value [1, 7]?
Answer: active

Question: And the IC50 (HEK293 cells)?
Answer: 28.8 µM

Question: And the IC50 (HepG2 cells)?
Answer: 132 µM

Question: And the hemolysis (human red blood cells; up to a final concentration of 100 μM, 1 h at 37° C.)?
Answer: did not induce significant hemolysis

Question: What about the “reversion of bacterial cultures (mutagenic potential)” value [3] of the same molecule?
Answer: did not induce significant reversion

Question: And the T-cell death (primary human T-cells)?
Answer: substantial cell death

Question: And the IC50 (primary human T-cells)?
Answer: ~1 µM

Question: What about the bioavailability [4] of the same molecule?
Answer: limited bioavailability

Question: With `CCOc1ccc(NC(=O)CSc2nc3ccc(NC(=O)c4ccccc4C)cc3s2)cc1` [compound 1] as the molecule, how does the IC50 (Mcl-1) read?
Answer: > 100 µM

Question: And the “safety in ex vivo skin” value (ex vivo human skin; 5% topical ointment in 10% DMSO: 45% PEG300:45% water, older and younger subject skin)?
Answer: No adverse effects

Question: And the “average decrease in p16 mRNA expression compared to vehicle” value (ex vivo human skin; 5 days of topical application, older subject skin, three samples)?
Answer: approximately 40%

Question: What about the “safety in wounded ex vivo skin” value ([5]; 10% solution in DMSO topically and about 100 μg/mL in culture medium) of the same molecule?
Answer: no adverse effects

Question: And the “average decrease in Col1a1 RNA expression inside wound compared to vehicle” value [5, 8]?
Answer: ~60%

Question: What about the “average decrease in MMP9 RNA expression inside wound compared to vehicle” value [5, 8] of the same molecule?
Answer: ~60%

Question: And the “average decrease in p16 RNA expression inside wound compared to vehicle” value [5, 8]?
Answer: ~30%

Question: What about the IC50 [6] of the same molecule?
Answer: > 100 µM

Question: For `COc1ccc(C(=O)Nc2ccc3nc(SCC(=O)Nc4ccccc4)sc3c2)c(F)c1` [compound 172], which “Therapeutic Index (TI)” value [1] is on record?
Answer: +++ (compounds with a TI of >5 were labeled as +++)

Question: Which “Therapeutic Index (TI)” value [1] does the source give for `CS(=O)(=O)c1ccc(C(=O)Nc2ccc3nc(SCC(=O)Nc4cccc(S(N)(=O)=O)c4)sc3c2)cc1F` [compound 173] here?
Answer: ++ (compounds with a TI of 1 to 5 were labelled as ++)

Question: For `CS(=O)(=O)c1cccc(C(=O)Nc2ccc3nc(SCC(=O)Nc4ccc(F)cc4)sc3c2)c1` [compound 174], which “Therapeutic Index (TI)” value [1] is on record?
Answer: +++ (compounds with a TI of >5 were labeled as +++)

Question: Which bioavailability [4] does the source give for `O=c1c(O)c(-c2ccc(O)c(O)c2)oc2cc(O)ccc12` [fisetin] here?
Answer: limited bioavailability

Question: Which “senolytic activity in screen” value ([1]; 1 μM) does the source give for `CN(C)CCCN1c2ccccc2CCc2ccccc21` [imipramine hydrochloride, reference compound] here?
Answer: active

Question: With `C[C@@H]1O[C@@H](O[C@H]2C[C@@H](O)[C@]3(CO)[C@H]4[C@H](O)C[C@]5(C)[C@@H](C6=CC(=O)OC6)CC[C@]5(O)[C@@H]4CC[C@]3(O)C2)[C@H](O)[C@H](O)[C@H]1O` [ouabain, reference compound] as the molecule, how does the “senolytic activity in screen” value [1, 7] read?
Answer: active

Question: With `Cc1noc(NS(=O)(=O)c2ccc(N)cc2)c1C` [sulfisoxazole, reference compound] as the molecule, how does the “senolytic activity in screen” value ([1]; 1 μM) read?
Answer: active

Question: With Triton X-100 [reference compound] as the molecule, how does the hemolysis (human red blood cells; concentrations ≥0.01% (w/w), positive control) read?
Answer: substantial hemolysis
